# Results: PMC12274739, “Differential substrate degradation by super-degron: EGFP in wild-type mouse cells, PD-1 requires CRBN humanization” (iScience, 2025)
# Read-outs that look alike come from different tables or passages of the source. Residues, ends and D or L forms follow the SMILES beside them. *: point of attachment. Cbz = O=C(OCc1ccccc1)*
# Legend:
# [1] = tested on: degradation of SD-tagged EGFP; assay: Inhibition of IBR-induced degradation of SD-EGFP or EGFP-SD in B6J-S1 by pathway inhibitors; type: cell-based, mouse; conditions: B6J-S1, IBR fixed at 1 μM, 24 h
# EGFP-SD = EGFP-SD (Aequorea victoria, UniProt P42212, F64L/H231L/S65T); type: cell-based, mouse; conditions: stable; for DC50: read-out: DC50, EGFP-SD
# EGFP-IKZF = EGFP-IKZF (UniProt P42212+Q8C7D2, F64L/H231L/INS1V/S65T); type: cell-based, mouse; conditions: for Bottom, EGFP-IKZF / LogDC50, EGFP-IKZF / DC50: stable; for DC50: read-out: DC50, EGFP-IKZF
# EGFP-ZFP91 = EGFP-ZFP91 (UniProt P42212+Q8C7D2, F64L/H231L/INS1V/S65T); type: cell-based, mouse; conditions: CrbnI391V/I391V mESCs; for Bottom, EGFP-ZFP91 / LogDC50, EGFP-ZFP91 / DC50: stable, Figure 5E; for DC50: read-out: DC50, EGFP-ZFP91
# [2] = in vivo; cited from earlier work
# [3] = CrbnI391V/I391V mESCs, Figure 5E
smiles,measurement,setting,value
"NS(=O)(=O)OC[C@@H]1C[C@@H](n2ccc3c(N[C@H]4CCc5ccccc54)ncnc32)C[C@@H]1O [MNL4924, pevonedistat]",effect on IBR-induced EGFP degradation,[1],inhibited in a concentration-dependent manner
CCN(CC)CCCC(C)Nc1ccnc2cc(Cl)ccc12 (centres unmarked) [chloroquine],effect on IBR-induced EGFP degradation,[1],but not by chloroquine
CCOC(=O)c1ccc(N2NC(=O)/C(=C/c3ccc([N+](=O)[O-])o3)C2=O)cc1 [PYR-41],effect on IBR-induced EGFP degradation,[1],did not affect the degradation of EGFP
NS(=O)(=O)OC[C@H]1C[C@@H](Nc2ccnc3cc(-c4cccc(SC(F)(F)F)c4)nn23)[C@H](O)[C@@H]1O [TAK-243],effect on IBR-induced EGFP degradation,[1],inhibited in a concentration-dependent manner
"N#Cc1ccc(N2CCN(Cc3ccc(COc4cccc5c4CN([C@H]4CCC(=O)NC4=O)C5=O)cc3)CC2)c(F)c1 [MZG, mezigdomide]","Bottom, EGFP-SD","EGFP-SD; B6J-S1 mESCs, Figure 5D",0.0126
same,"LogDC50, EGFP-SD","EGFP-SD; B6J-S1 mESCs, Figure 5D",-3.875 μM
same,"Bottom, EGFP-SD",EGFP-SD; [3],0.0164
same,"LogDC50, EGFP-SD",EGFP-SD; [3],-4.187 μM
same,DC50,"EGFP-SD; B6J-S1 mESCs, Figure 5D",0.133 nM
same,DC50,EGFP-SD; [3],0.0651 nM
same,"Bottom, EGFP-IKZF","EGFP-IKZF; B6J-S1 mESCs, Figure 5D",0.385
same,"LogDC50, EGFP-IKZF","EGFP-IKZF; B6J-S1 mESCs, Figure 5D",-1.952 μM
same,"Bottom, EGFP-IKZF",EGFP-IKZF; [3],0.1226
same,"LogDC50, EGFP-IKZF",EGFP-IKZF; [3],-3.265 μM
same,DC50,"EGFP-IKZF; B6J-S1 mESCs, Figure 5D",11.2 nM
same,DC50,EGFP-IKZF; [3],0.543 nM
same,degradation of EGFP-ZFP91,EGFP-ZFP91,efficiently degraded
same,"Bottom, EGFP-ZFP91",EGFP-ZFP91,0.03183
same,"LogDC50, EGFP-ZFP91",EGFP-ZFP91,-3.343 μM
same,DC50,EGFP-ZFP91,0.454 nM
"Cc1nc2cccc(N)c2c(=O)n1C1CCC(=O)NC1=O (centres unmarked) [AVA, avadomide]","Bottom, EGFP-SD","EGFP-SD; B6J-S1 mESCs, Figure 5D",0.01996
same,"LogDC50, EGFP-SD","EGFP-SD; B6J-S1 mESCs, Figure 5D",-2.1 μM
same,"Bottom, EGFP-SD",EGFP-SD; [3],0.06758
same,"LogDC50, EGFP-SD",EGFP-SD; [3],-2.187 μM
same,DC50,"EGFP-SD; B6J-S1 mESCs, Figure 5D",7.94 nM
same,DC50,EGFP-SD; [3],6.5 nM
same,"Bottom, EGFP-IKZF","EGFP-IKZF; B6J-S1 mESCs, Figure 5D",0.07112
same,"LogDC50, EGFP-IKZF","EGFP-IKZF; B6J-S1 mESCs, Figure 5D",-0.9014 μM
same,"Bottom, EGFP-IKZF",EGFP-IKZF; [3],0.1373
same,"LogDC50, EGFP-IKZF",EGFP-IKZF; [3],-1.87 μM
same,EGFP-IKZF amount compared to other reagents,"EGFP-IKZF; mESCs, 0.1 and 1 μM",significantly reduced
same,DC50,"EGFP-IKZF; B6J-S1 mESCs, Figure 5D",126 nM
same,DC50,EGFP-IKZF; [3],13.5 nM
same,"Bottom, EGFP-ZFP91",EGFP-ZFP91,0.1629
same,"LogDC50, EGFP-ZFP91",EGFP-ZFP91,-1.296 μM
same,DC50,EGFP-ZFP91,50.5 nM
CC(C)C[C@@H](C=O)NC(=O)[C@H](CC(C)C)NC(=O)[C@H](CC(C)C)NC(=O)OCc1ccccc1 [MG-132] (Cbz-Leu-Leu-Leu-aldehyde),effect on IBR-induced EGFP degradation,[1],inhibited in a concentration-dependent manner
CC[C@H](C(=O)N1CCCC[C@H]1C(=O)O[C@H](CCc1ccc(OC)c(OC)c1)c1ccccc1OCC(=O)NCCCCCCOc1cccc2c1C(=O)N(C1CCC(=O)NC1=O)C2=O)c1cc(OC)c(OC)c(OC)c1 (some centres unmarked) [dTAG-13],blood-brain barrier (BBB) passage,[2],cannot cross the blood-brain barrier
